The test system of one assay is DU145 cells. The experiment in a line: Growth curves, colorimetric MTT assay, DU145 cells. Particulars: various doses of I3C for 5 Days. Format: cell-based, human. From the text:
(§1) FIG. 11C provides growth curves of DU145 (PTEN competent) or PC3 cells (PTEN null) treated with various doses of I3C for 5 Days, and then assayed with colorimetric MTT assay (three experiments). Whether targeting WWP1/NEDD4-1, thereby enhancing PTEN dimerization and function, could offer a unique opportunity to treat MYC-driven cancers was investigated. […] As there is no small pharmacological inhibitor currently available to suppress/inhibit WWP1 activity, Indole-3-Carbinol (I3C), a potential WWP1 inhibitor, which suppresses the WWP1 activity through binding to its HECT domain, was used. First, to assess the on-target effects of I3C towards WWP1, Wwp1^−/− MEFs were used. […] Additionally, two independent PTEN stably knocked-down cells were generated.
On the technique in general: Tetrazolium dyes change colour on reduction, which living cells bring about.

A further assay has as its system LNCaP cells (PTEN-null). The experiment in a line: Cell growth, LNCaP cells. Format: cell-based, human. The text has this: Whether targeting WWP1/NEDD4-1, thereby enhancing PTEN dimerization and function, could offer a unique opportunity to treat MYC-driven cancers was investigated. […] As there is no small pharmacological inhibitor currently available to suppress/inhibit WWP1 activity, Indole-3-Carbinol (I3C), a potential WWP1 inhibitor, which suppresses the WWP1 activity through binding to its HECT domain, was used. First, to assess the on-target effects of I3C towards WWP1, Wwp1^−/− MEFs were used. […] Additionally, two independent PTEN stably knocked-down cells were generated.

The next assay has as its system PC3 cells (PTEN-null). The experiment in a line: Growth curves, colorimetric MTT assay, PC3 cells. Format: cell-based, human. Particulars: various doses of I3C for 5 Days.
Text: as §1

Assay [1] deals with WWP1/NEDD4-1 E3 mediated PTEN K27-linked poly-ubiquitination. Put plainly: In vivo ubiquitination assay (Ni-NTA pull down, western blot) in DU145 cells. Format: cell-based, human. Particulars: 10 μM or 20 μM I3C for 4 Days. The procedure:
DU145 cells expressing indicated plasmids were treated with 10 μM or 20 μM of I3C for 4 Days. The ubiquitinated PTEN was pulled down under denaturing conditions by Ni-NTA agarose and analysed by the western blot. Whether targeting WWP1/NEDD4-1, thereby enhancing PTEN dimerization and function, could offer a unique opportunity to treat MYC-driven cancers was investigated. […] As there is no small pharmacological inhibitor currently available to suppress/inhibit WWP1 activity, Indole-3-Carbinol (I3C), a potential WWP1 inhibitor, which suppresses the WWP1 activity through binding to its HECT domain, was used. First, to assess the on-target effects of I3C towards WWP1, Wwp1^−/− MEFs were used. […] Additionally, two independent PTEN stably knocked-down cells were generated. […] To analyse in vivo ubiquitination of PTEN, cells were transfected with various constructs, together with His-Ubiquitin and Myc-PTEN. Cells were lysed by buffer A (6 M guanidine-HCl, Na2HPO4/NaH2PO4 [pH 8.0], and 10 mM imidazole), and lysates were incubated with Ni-NTA agarose for 1.5 hours at 4° C. The beads were washed once with buffer A, twice with buffer ANTI (1 vol buffer A: 3 vol buffer TI [25 mM Tris-HCl, pH 6.8, and 20 mM imidazole]), and three times with buffer TI, and then analysed by western blot. In all experiments, an equal amount of His-Ubiquitin expression was verified by western blot analysis.
In general terms: Immunoblotting shows a protein as a band on a membrane.

For assay [2], the system named is Wwp1^+/+ and Wwp1^−/− MEFs. The experiment in a line: Growth curves of Wwp1+/+ and Wwp1-/- MEFs treated with I3C. As to conditions: 100 μM I3C. Format: cell-based, mouse. The procedure:
FIG. 10C provides growth curves of Wwp1^+/+ and Wwp1^−/− MEFs treated with 100 μM I3C. Representative pictures of the cells at Day 3 are shown below. Whether targeting WWP1/NEDD4-1, thereby enhancing PTEN dimerization and function, could offer a unique opportunity to treat MYC-driven cancers was investigated. […] As there is no small pharmacological inhibitor currently available to suppress/inhibit WWP1 activity, Indole-3-Carbinol (I3C), a potential WWP1 inhibitor, which suppresses the WWP1 activity through binding to its HECT domain, was used. First, to assess the on-target effects of I3C towards WWP1, Wwp1^−/− MEFs were used. […] Additionally, two independent PTEN stably knocked-down cells were generated. […] At 8 hours post-transfection, cells were trypsinized, resuspended, and seeded in three separate 12-well plates at a final density of 20,000/well. Starting the following day (d0), one plate per day was washed once with PBS, fixed in 10% formalin solution for 10 minutes at room temperature, and kept in PBS at 4° C. On the last day, all of the wells were stained with crystal violet. After lysis with 10% acetic acid, optical density was read at 595 nm.

A further assay addresses WWP1 (Homo sapiens, UniProt Q9H0M0). The experiment in a line: MicroScale Thermophoresis (MST) binding analysis of I3C towards WWP1. The text has this: FIG. 10B provides the MST analysis of I3C towards WWP1. […] When I3C was superimposed onto the covalent inhibitor and WWP1 onto NEDD4-1, a model was generated showing I3C-bound WWP1 with the binding pocket formed by residues F577, L630, Y628, C629, N650, and Y656. […] The experiments of this example next confirmed this hypothesis by MicroScale Thermophoresis (MST) binding analysis.
(In general: Microscale thermophoresis detects binding through changes in fluorescence in a small temperature gradient.)

A further assay concerns Hi-Myc prostate spheres. The experiment in a line: Prostate sphere forming ability of WT or Hi-Myc prostatic epithelial cells. Format: cell-based, mouse. Particulars: Hi-Myc spheres at P1 passage, 10 μM I3C for 3 Day (low dose).
In assay [3] the test system is PTEN subcellular localization in DU145 cells. The experiment in a line: Confocal immunofluorescence of PTEN subcellular localization in DU145 cells. Format: cell-based, human. As to conditions: 20 μM I3C for 4 Days. Here is the method: FIG. 10D provides a panel of micrographs showing the effects of I3C on PTEN subcellular localization in DU145 cells. DU145 cells treated with 20 μM I3C for 4 Days. Confocal images of DU145 cells treated with/without I3C were stained with DAPI and the indicated antibodies. Bar, 20 μm. Whether targeting WWP1/NEDD4-1, thereby enhancing PTEN dimerization and function, could offer a unique opportunity to treat MYC-driven cancers was investigated. […] As there is no small pharmacological inhibitor currently available to suppress/inhibit WWP1 activity, Indole-3-Carbinol (I3C), a potential WWP1 inhibitor, which suppresses the WWP1 activity through binding to its HECT domain, was used. First, to assess the on-target effects of I3C towards WWP1, Wwp1^-/- MEFs were used. […] Additionally, two independent PTEN stably knocked-down cells were generated. […] PC3 and DU145 cells stably expressing the indicated constructs were plated on coverslip. The following day, cells were washed with ice-cold PBS, fixed in 4% paraformaldehyde, permeabilized with 0.02% Triton X-100, and then blocked with PBS supplemented with 20% goat serum. Cells were incubated with anti-PTEN antibody (6H2.1, 1:100) from Cascade Bioscience, diluted in PBS containing 10% goat serum overnight and then with Alexa488-conjugated secondary antibody together with 1 μg/ml of DAPI for 1 hour. Images were acquired with a […] […]

Experimental findings from patent US20190374506A1, “COMPOSITIONS AND METHODS FOR TREATING CANCER” (BETH ISREAL DEACONESS MEDICAL CENTER, priority 2016, published 2019) are described below.

Chain of WWP1 (Q9H0M0 whole entry): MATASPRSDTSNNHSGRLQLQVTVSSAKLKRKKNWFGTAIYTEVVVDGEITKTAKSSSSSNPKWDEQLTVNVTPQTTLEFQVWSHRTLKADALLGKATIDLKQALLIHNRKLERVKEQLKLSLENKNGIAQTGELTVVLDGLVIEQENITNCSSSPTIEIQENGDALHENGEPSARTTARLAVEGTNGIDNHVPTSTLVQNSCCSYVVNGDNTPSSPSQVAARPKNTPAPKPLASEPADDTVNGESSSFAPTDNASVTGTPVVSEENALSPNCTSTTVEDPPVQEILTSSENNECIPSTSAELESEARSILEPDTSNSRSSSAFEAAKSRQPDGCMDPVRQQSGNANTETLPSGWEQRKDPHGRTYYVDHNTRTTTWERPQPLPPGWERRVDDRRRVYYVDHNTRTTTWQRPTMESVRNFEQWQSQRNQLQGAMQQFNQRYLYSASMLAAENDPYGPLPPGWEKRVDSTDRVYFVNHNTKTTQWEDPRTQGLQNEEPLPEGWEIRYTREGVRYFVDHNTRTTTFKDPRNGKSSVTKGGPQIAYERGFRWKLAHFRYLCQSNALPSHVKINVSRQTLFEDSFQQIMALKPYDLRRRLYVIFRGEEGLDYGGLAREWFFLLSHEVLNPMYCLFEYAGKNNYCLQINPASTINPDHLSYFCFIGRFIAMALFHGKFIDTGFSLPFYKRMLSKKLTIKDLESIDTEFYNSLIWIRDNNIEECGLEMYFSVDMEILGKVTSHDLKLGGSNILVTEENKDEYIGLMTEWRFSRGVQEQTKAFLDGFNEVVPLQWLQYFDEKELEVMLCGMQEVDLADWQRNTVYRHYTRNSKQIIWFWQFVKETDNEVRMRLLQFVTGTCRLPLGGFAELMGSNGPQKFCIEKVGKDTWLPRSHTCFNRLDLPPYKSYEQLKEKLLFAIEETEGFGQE

What is called Kd is the free concentration of one partner at which half of the binding sites on the other are occupied at equilibrium, for simple one-to-one binding. Regarding `OCc1c[nH]c2ccccc12` [I3C, indole-3-carbinol], the cell growth entry was “drastic inhibition of cell growth” in the assay with DU145 cells, “only modestly suppressed cell growth” in the assay on LNCaP cells (PTEN-null) and “only modestly suppressed cell growth” in the assay on PC3 cells (PTEN-null). In addition, the “PTEN K27-linked poly-ubiquitination” value in assay [1] is recorded as “robustly diminished”. In assay [2], the “sensitivity of Wwp1−/− cells to I3C treatment compared to Wwp1+/+ cells” value was “more resistant”. On WWP1 (MST Kd for WWP1 versus literature Kd for NEDD4-1), the “binding affinity for WWP1 compared to NEDD4-1” value is given as “significantly stronger binding affinity”. The Kd on WWP1 (MST binding analysis, read-out: dissociation constant (Kd) of I3C binding to WWP1) is roughly 0.12 µM. Further, the prostate sphere-forming ability result in the assay on Hi-Myc prostate spheres is on record as “drastically suppressed”. The “PTEN plasma membrane localization” value in assay [3] is on record as “induced its plasma membrane accumulation”.
